Reference: US8772504B2, “Substituted benzoxazole, benzimidazole, oxazolopyridine and imidazopyridine derivatives as gamma secretase modulators” (Janssen Pharmaceuticals, Inc., priority 2009, dated 2014)

Assays:
Aβtotal [1] = assay: In vivo efficacy Method 2: brain soluble Aβtotal by ELISA; set-up: species or system mouse; conditions: Table 4b, single oral dose, overnight fasted non-transgenic animals, sacrificed after 4 h, soluble fraction of brain homogenates
Source text: (§1) To determine whether acute administration of an Aβ42 lowering agent would reduce Aβ42 levels in vivo, non-transgenic rodents, e.g. mice or rats were used. Animals treated with the Aβ42 lowering agent were examined and compared to those untreated or treated with vehicle and brain levels of soluble Aβ42 and total Aβ were quantitated by standard techniques, for example, using ELISA. Treatment periods varied from hours (h) to days and were adjusted based on the results of the Aβ42 lowering once a time course of onset of effect could be established.
(§2) A typical protocol for measuring Aβ42 lowering in vivo is shown but it is only one of many variations that could be used to optimize the levels of detectable Aβ. For example, Aβ42 lowering compounds were formulated in 20% of Captisol® (a sulfobutyl ether of β-cyclodextrin) in water or 20% hydroxypropyl β cyclodextrin. The Aβ42 lowering agents were administered as a single oral dose or by any acceptable route of administration to overnight fasted animals. After 4 h, the animals were sacrificed and Aβ42 levels were analysed.
(§3) Blood was collected by decapitation and exsanguinations in EDTA-treated collection tubes. Blood was centrifuged at 1900 g for 10 minutes (min) at 4° C. and the plasma recovered and flash frozen for later analysis. The brain was removed from the cranium and hindbrain. The cerebellum was removed and the left and right hemisphere were separated. The left hemisphere was stored at −18° C. for quantitative analysis of test compound levels. The right hemisphere was rinsed with phosphate-buffered saline (PBS) buffer and immediately frozen on dry ice and stored at −80° C. until homogenization for biochemical assays.
(§4) Mouse brains from non-transgenic animals were resuspended in 8 volumes of 0.4% DEA (diethylamine)/50 mM NaCl containing protease inhibitors (Roche-11873580001 or 04693159001) per gram of tissue, e.g. for 0.158 g brain, add 1.264 ml of 0.4% DEA. All samples were homogenized in the FastPrep-24 system (MP Biomedicals) using lysing matrix D (MPBio #6913-100) at 6 m/s for 20 seconds. Homogenates were centrifuged at 221.300×g for 50 min. The resulting high speed supernatants were then transferred to fresh eppendorf tubes. Nine parts of supernatant were neutralized with 1 part 0.5 M Tris-HCl pH 6.8 and used to quantify Aβtotal and Aβ42.
(§5) To quantify the amount of Aβtotal and Aβ42 in the soluble fraction of the brain homogenates, Enzyme-Linked-Immunosorbent-Assays were used . Briefly, the standards (a dilution of synthetic Aβ1-40 and Aβ1-42, Bachem) were prepared in 1.5 ml Eppendorf tube in Ultraculture, with final concentrations ranging from 10000 to 0.3 pg/ml. The samples and standards were co-incubated with HRPO-labelled N-terminal antibody for Aβ42 detection and with the biotinylated mid-domain antibody 4G8 for Aβtotal detection. 50 μl of conjugate/sample or conjugate/standards mixtures were then added to the antibody-coated plate (the capture antibodies selectively recognize the C-terminal end of Aβ42, antibody JRF/cAβ42/26, for Aβ42 detection and the N-terminus of Aβ, antibody JRF/rAβ/2, for Aβtotal detection). The plate was allowed to incubate overnight at 4° C. in order to allow formation of the antibody-amyloid complex. Following this incubation and subsequent wash steps the ELISA for Aβ42 quantification was finished by addition of Quanta Blu fluorogenic peroxidase substrate according to the manufacturer's instructions (Pierce Corp., Rockford, Ill.). A reading was performed after 10 to 15 min (excitation 320/emission 420).
For Aβtotal detection, a Streptavidine-Peroxidase-Conjugate was added, followed 60 min later by an additional wash step and addition of Quanta Blu fluorogenic peroxidase substrate according to the manufacturer's instructions (Pierce Corp., Rockford, Ill.). A reading was performed after 10 to 15 min (excitation 320 nm/emission 420 nm).

Aβ42 [2] = assay: In vivo efficacy Method 2: brain soluble Aβ42 by ELISA; set-up: species or system mouse; conditions: Table 4b, single oral dose, overnight fasted non-transgenic animals, sacrificed after 4 h, soluble fraction of brain homogenates
Source text: as §1, §2, §3, §4, §5
In this model at least 20% Aβ42 lowering compared to untreated animals would be advantageous.

Aβtotal [3] = assay: Screening for γ-secretase-modulating activity, Method 2: Aβtotal Alphalisa on SKNBE2 cell supernatant; type: cell-based; conditions: Method 2, Table 3c, SKNBE2 cells carrying APP 695 wild type, overnight incubation
Summary of the method: (§6)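 SKNBE2 cells expressing wild-type APP695, plated at 10^4 cells/well with compound at several concentrations and incubated overnight at 37° C. Aβ42 (C-terminal capture, N-terminal biotinylated detection) and Aβtotal (N-terminal/4G8 pair) measured in supernatant by AlphaLISA. IC50 from 4-parameter fit of percent of compound-free control.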

Aβ42 [4] = assay: Screening for γ-secretase-modulating activity, Method 2: Aβ42 Alphalisa on SKNBE2 cell supernatant; type: cell-based; conditions: Method 2, Table 3c, SKNBE2 cells carrying APP 695 wild type, overnight incubation
Summary of the method: as §6

Aβtotal [5] = assay: In vivo efficacy Method 1: brain soluble Aβtotal by ELISA; set-up: species or system mouse; conditions: Table 4a, single oral dose, overnight fasted animals, sacrificed after 4 h, soluble fraction of brain homogenates
Source text: (§7) To determine whether acute administration of an Aβ42 lowering agent would reduce Aβ42 levels in vivo, non-transgenic rodents, e.g. mice or rats were used. Alternatively, two to three month old Tg2576 mice expressing APP695 containing the “Swedish” variant can be used or a transgenic mouse model developed by Dr. Fred Van Leuven (K.U. Leuven, Belgium) and co-workers, with neuron-specific expression of a clinical mutant of the human amyloid precursor protein [V717I] […] Young transgenic mice have high levels of Aβ in the brain but no detectable Aβ deposition. At approximately 6-8 months of age, the transgenic mice start to display spontaneous, progressive accumulation of β-amyloid (Aβ) in the brain, eventually resulting in amyloid plaques within the subiculum, hippocampus and cortex. Animals treated with the Aβ42 lowering agent were examined and compared to those untreated or treated with vehicle and brain levels of soluble Aβ42 and total Aβ would be quantitated by standard techniques, for example, using ELISA.
as §2, §3
(§8) All samples were sonicated for 30 seconds on ice at 20% power output (pulse mode). Homogenates were centrifuged at 221.300×g for 50 min. The resulting high speed supernatants were then transferred to fresh tubes and were optionally further purified before the next step. A portion of the supernatant was neutralized with 10% 0.5 M Tris-HCl and this was used to quantify Aβtotal.
The obtained supernatants were purified with Water Oasis HLB reverse phase columns (Waters Corp., Milford, Mass.) to remove non-specific immunoreactive material from the brain lysates prior subsequent Aβ detection. Using a vacuum manifold, all solutions were passed through the columns at a rate of approximately 1 ml per min, so the vacuum pressure was adjusted accordingly throughout the procedure. Columns were preconditioned with 1 ml of 100% MeOH, before equilibration with 1 ml of H2O, Non-neutralized brain lysates were loaded onto the columns. The loaded samples were then washed twice with the first wash performed with 1 ml of 5% MeOH, and the second wash with 1 ml of 30% MeOH. Finally, the Aβ was eluted from the columns and into 100×30 mm glass tubes, with a solution of 90% MeOH with 2% NH4OH. The eluate was then transferred into 1.5 ml tubes and concentrated in a speed-vac concentrator on high heat for about 1.5-2 h at 70° C. The concentrated Aβ was then resuspended in UltraCULTURE General Purpose Serum-Free Medium (Cambrex Corp., Walkersville, Md.) plus Protease Inhibitors added. […]

Aβ42 [6] = assay: In vivo efficacy Method 1: brain soluble Aβ42 by ELISA; set-up: species or system mouse; conditions: Table 4a, single oral dose, overnight fasted animals, sacrificed after 4 h, soluble fraction of brain homogenates
Source text: as §7, §2, §3, §8
The obtained supernatants were purified with Water Oasis HLB reverse phase columns (Waters Corp., Milford, Mass.) to remove non-specific immunoreactive material from the brain lysates prior subsequent Aβ detection. Using a vacuum manifold, all solutions were passed through the columns at a rate of approximately 1 ml per min, so the vacuum pressure was adjusted accordingly throughout the procedure. Columns were preconditioned with 1 ml of 100% MeOH, before equilibration with 1 ml of H2O, Non-neutralized brain lysates were loaded onto the columns. The loaded samples were then washed twice with the first wash performed with 1 ml of 5% MeOH, and the second wash with 1 ml of 30% MeOH. Finally, the Aβ was eluted from the columns and into 100×30 mm glass tubes, with a solution of 90% MeOH with 2% NH4OH. The eluate was then transferred into 1.5 ml tubes and concentrated in a speed-vac concentrator on high heat for about 1.5-2 h at 70° C. The concentrated Aβ was then resuspended in UltraCULTURE General Purpose Serum-Free Medium (Cambrex Corp., Walkersville, Md.) plus Protease Inhibitors added.
To quantify the amount of Aβ42 in the soluble fraction of the brain homogenates, commercially available Enzyme-Linked-Immunosorbent-Assay (ELISA) kits were used (e.g. Innotest® β-Amyloid(1-42), Innogenetics N.V., Ghent, Belgium). The Aβ42 ELISA was performed using the plate provided with the kit only.

Aβ42 [7] = assay: Screening for γ-secretase-modulating activity, Method 1: Aβ42 sandwich ELISA on SKNBE2 cell media; type: cell-based; conditions: SKNBE2 cells carrying APP 695 wild type
Summary of the method: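 SKNBE2 cells expressing wild-type APP695 were treated with compound for 18 h in Ultraculture/1% glutamine. Secreted Aβ42 was quantified by sandwich ELISA (C-terminal capture, biotinylated 3D6, TMB, 450 nm), with WST-1 used as a toxicity check. IC50 was derived from 4-parameter fits of % inhibition or % of untreated control.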

Aβtotal [8] = assay: Screening for γ-secretase-modulating activity, Method 1: Aβtotal sandwich ELISA on SKNBE2 cell media; type: cell-based; conditions: SKNBE2 cells carrying APP 695 wild type
Summary of the method: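 SKNBE2 cells expressing wild-type APP 695 were treated with compound for 18 hours. Aβtotal in the medium was measured by sandwich ELISA (6E10 capture, biotinylated 4G8 detection, fluorogenic peroxidase read-out). IC50 came from a 4-parameter fit of % inhibition with top/bottom fixed at 100/0 and Hill slope 1, or as averaged IC50 from % of untreated control.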

[9] = Table 3a, 18 hours, XLfit, top/bottom fixed to 100 and 0, hill slope 1
[10] = Table 3b, non-linear regression of % of control, averaged IC50 values

| SMILES | Aβtotal (% Ctrl) _Mean (Aβtotal [1]) [% Ctrl] | Aβ42 (% Ctrl) _Mean (Aβ42 [2]) [% Ctrl] | IC50 (Aβtotal [3]) [nM] | IC50 (Aβ42 [4]) [nM] | IC50 (Aβtotal [3]; Homo sapiens) [nM] | IC50 (Aβ42 [4]; Homo sapiens) [nM] | Aβtotal (% Ctrl) _Mean (Aβtotal [5]) [% Ctrl] | Aβ42 (% Ctrl) _Mean (Aβ42 [6]) [% Ctrl] | IC50 (Aβ42 [7]; [9]) [nM] | IC50 (Aβ42 [7]; [10]) [nM] | IC50 (Aβtotal [8]; [9]) [nM] | IC50 (Aβtotal [8]; [10]) [nM] |
| --- | --- | --- | --- | --- | --- | --- | --- | --- | --- | --- | --- | --- |
| COc1cc(Nc2ccc(-n3cnc(C)c3)c(OC)n2)c2nc(-c3ccc(F)cc3)n(C)c2n1 [Compound 202] | 102 | 82 | > 10000 | 5 | – | – | – | – | – | – | – | – |
| COc1cc(OC)cc(-c2nc3c(Nc4ccc(-n5cnc(C)c5)c(OC)n4)cccc3n2C)c1.Cl.Cl.O [Compound 186] | 88 | 38 | 8320 | 12 | – | – | – | – | – | – | – | – |
| Cc1cn(-c2ccc(Nc3nc(C)cc4c3nc(-c3cccc(N(C)C)c3)n4C)cc2F)cn1 [Compound 142] | 98 | 73 | 9330 | 15 | – | – | – | – | – | – | – | – |
| COc1nc(Nc2cccc3c2nc(-c2cc(C(F)(F)F)ccc2F)n3C)ccc1-n1cnc(C)c1 [Compound 187] | 96 | 75 | – | – | 7240 | 36 | – | – | – | – | – | – |
| COc1cc(-c2nc3c(Nc4ccc(-n5cnc(C)c5)c(OC)n4)cccc3n2C)ccc1F [Compound 184] | 88 | 31 | – | – | > 10000 | 13 | – | – | – | – | – | – |
| COc1cc(Nc2ccc(-n3cnc(C)c3)c(OC)n2)c2nc(-c3ccc(F)cc3)n(C)c2c1 [Compound 160] | 78 | 84 | > 10000 | 5 | – | – | – | – | – | – | – | – |
| COc1nc(Nc2cccc3c2nc(-c2cc(F)cc(F)c2)n3C)ccc1-n1cnc(C)c1.Cl.Cl.O [Compound 165] | 85 | 44 | 3720 | 6 | – | – | – | – | – | – | – | – |
| COc1nc(Nc2cccc3c2nc(-c2cccc(OC(F)(F)F)c2)n3C)ccc1-n1cnc(C)c1 [Compound 189] | 95 | 48 | 8320 | 17 | – | – | – | – | – | – | – | – |
| COc1nc(Nc2cc(F)cc3c2nc(-c2ccc(F)cc2)n3C(C)C)ccc1-n1cnc(C)c1 [Compound 106] | – | – | – | – | 6170 | 4 | 104 | 87 | – | – | – | – |
| COc1cc(-c2nc3c(Nc4ccc(-n5cnc(C)c5)c(OC)n4)cccc3n2C(C)C)ccc1Cl [Compound 131] | – | – | 8130 | 5 | – | – | 84 | 51 | – | – | – | – |
| COc1cc(Nc2cccc3c2nc(-c2cccc(Cl)c2)n3C)ccc1-n1ncnc1C [Compound 96] | – | – | – | – | – | – | 88 | 62 | 31 | 24 | > 1000 | > 3000 |
| Cc1ncn(-c2ccc(Nc3cccc4c3nc(-c3ccc(F)cc3)n4C(C)C)cc2F)n1.Cl.Cl [Compound 74] | – | – | – | – | – | – | 99 | 86 | 65 | 59 | > 3000 | > 3000 |
